Results published in ChEMBL document CHEMBL1201862, “PubChem BioAssay data set” (2004).
Calls of active or inactive are those of the source.

Assays:
[1] = target: FAD-linked sulfhydryl oxidase ALR (Homo sapiens, UniProt P55789); assay: ALR-catalysed DTT oxidation blockers – biochemical, H2O2 detection, luminescence, cherry-pick, dose response (AID 493248)
cells = type: functional
H9c2 = assay: cells; type: functional, cell-based; conditions: Rattus norvegicus, H9c2, Myocardium;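 further: confirmatory concentration-response retest of ultra-high-throughput screening hits for modulation of myocardial damage; cell death induced by hydrogen peroxide oxidative stress; compound pretreatment for 60 min then peroxide exposure for 2 h; potency is for protecting the cells against peroxide damage rather than for killing them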
[2] = target: T1, Ubiquitin-conjugating enzyme E2 N (Homo sapiens, UniProt P61088); type: functional;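 further: Dose-response confirmation in a TR-FRET assay detecting UBC13-driven polyubiquitin chain formation, inhibition measured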
T1 sequence (P61088 whole entry): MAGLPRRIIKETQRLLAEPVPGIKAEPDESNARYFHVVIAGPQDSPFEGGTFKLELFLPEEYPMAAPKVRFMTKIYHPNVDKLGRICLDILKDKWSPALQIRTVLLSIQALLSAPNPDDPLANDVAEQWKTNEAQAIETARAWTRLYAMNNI

[3] = target: T2, DNA repair protein RAD52 homolog (Homo sapiens, UniProt P43351); type: functional, biochemical
T2 sequence (P43351 whole entry): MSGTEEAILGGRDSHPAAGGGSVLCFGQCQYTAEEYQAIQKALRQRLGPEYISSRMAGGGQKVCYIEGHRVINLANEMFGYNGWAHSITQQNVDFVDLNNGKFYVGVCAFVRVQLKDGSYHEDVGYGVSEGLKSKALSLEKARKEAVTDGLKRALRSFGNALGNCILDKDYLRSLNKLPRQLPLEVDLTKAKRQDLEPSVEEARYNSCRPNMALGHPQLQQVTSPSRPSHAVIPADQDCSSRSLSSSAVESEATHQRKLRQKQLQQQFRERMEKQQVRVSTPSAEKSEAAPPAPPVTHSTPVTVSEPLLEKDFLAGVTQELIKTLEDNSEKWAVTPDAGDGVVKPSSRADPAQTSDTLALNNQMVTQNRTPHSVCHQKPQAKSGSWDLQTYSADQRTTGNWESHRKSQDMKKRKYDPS

[4] = Luminescence Cell-Based Dose Confirmation HTS to Identify Activators of 5'UTR Stem-Loop Driven Alpha-Synuclein mRNA Translation in H4 Neuroglioblastoma Cells. [Related pubchem assays: 1829 (Project Summary), 1814 (Primary HTS)]; type: functional
[5] = Luminescence Cell-Based Dose Response HTS to Identify Activators of Luciferase Translation or Activity in H4 […] Cells. [Related pubchem assays: 1829 (Project Summary), 1814 (Primary HTS)]; type: functional
H4 = assay: Luminescence Cell-Based Dose Response HTS to Identify Activators of 5'UTR Stem-Loop Driven Prion Protein mRNA Translation in H4 Neuroglioblastoma Cells. [Related pubchem assays: 1829 (Project Summary), 1814 (Primary HTS)]; type: functional; conditions: Homo sapiens
[6] = Luminescence Cell-Based Dose Retest to Confirm Inhibitors of Cancer Stem Cells. [Related pubchem assays (depositor defined):AID2717, AID2721]; type: functional; conditions: Homo sapiens
[7] = target: T3, Replicative DNA helicase DnaB (Mycobacterium tuberculosis, UniProt P9WMR3); assay: DnaB intein splicing inhibitors, dose response, biochemical, cell-free fluorescence (AID 449749); type: functional
T3 sequence (P9WMR3 whole entry): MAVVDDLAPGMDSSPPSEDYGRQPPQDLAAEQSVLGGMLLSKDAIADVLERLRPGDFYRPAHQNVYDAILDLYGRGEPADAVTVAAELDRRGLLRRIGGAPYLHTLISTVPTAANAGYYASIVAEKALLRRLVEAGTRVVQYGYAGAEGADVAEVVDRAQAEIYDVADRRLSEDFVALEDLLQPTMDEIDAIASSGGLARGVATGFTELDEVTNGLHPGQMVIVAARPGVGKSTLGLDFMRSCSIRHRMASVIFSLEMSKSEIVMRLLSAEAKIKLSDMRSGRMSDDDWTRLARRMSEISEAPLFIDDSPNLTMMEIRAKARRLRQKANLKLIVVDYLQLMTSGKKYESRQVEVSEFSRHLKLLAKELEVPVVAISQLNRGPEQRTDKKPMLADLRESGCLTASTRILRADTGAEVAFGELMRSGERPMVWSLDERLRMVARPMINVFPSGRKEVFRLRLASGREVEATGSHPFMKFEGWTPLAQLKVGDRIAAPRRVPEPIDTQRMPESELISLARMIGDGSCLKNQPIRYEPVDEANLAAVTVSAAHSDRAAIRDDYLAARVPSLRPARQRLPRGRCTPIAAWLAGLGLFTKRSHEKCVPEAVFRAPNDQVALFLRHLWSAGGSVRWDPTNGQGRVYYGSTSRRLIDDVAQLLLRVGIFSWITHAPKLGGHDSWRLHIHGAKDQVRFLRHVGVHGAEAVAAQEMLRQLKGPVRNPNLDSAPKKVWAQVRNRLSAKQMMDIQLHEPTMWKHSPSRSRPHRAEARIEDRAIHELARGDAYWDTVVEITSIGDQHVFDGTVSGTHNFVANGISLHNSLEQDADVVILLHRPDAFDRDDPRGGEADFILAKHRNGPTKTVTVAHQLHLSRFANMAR

Protein RecA = target: T4, Protein RecA (Mycobacterium tuberculosis, UniProt P9WHJ3); assay: Fluorescence Cell-Free Homogeneous Dose Retest to Identify Inhibitors of RecA-Intein Splicing Activity. [Related pubchem assays (depositor defined):AID2097, AID2223, AID489010, AID492950]; type: functional
T4 sequence (P9WHJ3 whole entry): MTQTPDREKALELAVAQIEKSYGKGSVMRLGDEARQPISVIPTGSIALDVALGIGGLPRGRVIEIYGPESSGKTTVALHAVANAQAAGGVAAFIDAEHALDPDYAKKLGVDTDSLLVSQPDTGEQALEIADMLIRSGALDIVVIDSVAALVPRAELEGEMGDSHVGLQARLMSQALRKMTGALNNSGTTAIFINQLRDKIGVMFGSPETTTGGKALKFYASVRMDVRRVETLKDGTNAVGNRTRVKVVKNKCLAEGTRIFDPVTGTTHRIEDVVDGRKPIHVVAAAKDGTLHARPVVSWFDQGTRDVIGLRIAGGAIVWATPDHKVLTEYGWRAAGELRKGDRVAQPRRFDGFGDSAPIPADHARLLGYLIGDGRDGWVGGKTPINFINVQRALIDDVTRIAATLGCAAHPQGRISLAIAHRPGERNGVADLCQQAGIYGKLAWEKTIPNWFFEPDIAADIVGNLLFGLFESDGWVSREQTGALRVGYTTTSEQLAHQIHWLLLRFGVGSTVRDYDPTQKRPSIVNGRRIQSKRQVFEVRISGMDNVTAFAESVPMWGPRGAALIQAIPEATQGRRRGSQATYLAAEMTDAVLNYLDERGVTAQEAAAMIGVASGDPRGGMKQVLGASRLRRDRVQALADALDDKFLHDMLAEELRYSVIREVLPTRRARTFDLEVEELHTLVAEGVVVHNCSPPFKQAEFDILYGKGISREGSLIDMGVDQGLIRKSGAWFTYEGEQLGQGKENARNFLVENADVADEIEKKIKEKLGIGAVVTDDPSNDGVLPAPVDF

[8] = target: T5, Rac GTPase-activating protein 1 (Homo sapiens, UniProt Q9H0H5); assay: blockers of MgcRacGAP-driven Rac1 GTP hydrolysis – biochemical, ADP Hunter fluorescence, primary and confirmatory, confirmation (AID 624330); type: functional
T5 sequence (Q9H0H5 whole entry): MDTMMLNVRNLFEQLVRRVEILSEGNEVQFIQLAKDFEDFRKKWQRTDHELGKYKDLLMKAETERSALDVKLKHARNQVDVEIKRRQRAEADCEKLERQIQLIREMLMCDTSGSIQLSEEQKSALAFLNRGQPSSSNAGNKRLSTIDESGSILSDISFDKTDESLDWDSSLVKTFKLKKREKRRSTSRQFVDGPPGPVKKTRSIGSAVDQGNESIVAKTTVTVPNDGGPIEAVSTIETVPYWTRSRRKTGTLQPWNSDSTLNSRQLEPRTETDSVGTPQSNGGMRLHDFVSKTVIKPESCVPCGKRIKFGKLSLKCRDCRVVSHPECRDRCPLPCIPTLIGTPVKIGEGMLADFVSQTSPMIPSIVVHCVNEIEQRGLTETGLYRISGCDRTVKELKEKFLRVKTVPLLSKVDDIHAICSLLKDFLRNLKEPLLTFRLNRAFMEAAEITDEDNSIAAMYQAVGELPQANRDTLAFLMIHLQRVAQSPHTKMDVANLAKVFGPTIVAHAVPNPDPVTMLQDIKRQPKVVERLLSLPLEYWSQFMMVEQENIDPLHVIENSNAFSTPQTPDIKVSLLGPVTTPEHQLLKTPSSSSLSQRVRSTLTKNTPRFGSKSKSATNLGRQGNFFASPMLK

[9] = Trypanosoma cruzi growth suppression in host cells – NIH3T3 host cells, beta-gal luminescence, confirmation (AID 2044); type: functional, cell-based;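 further: intracellular parasites grown in NIH/3T3 mouse fibroblasts as host cells; luminescent beta-galactosidase reporter signal from transgenic T. cruzi replicating inside host cells; inhibitors lower the luminescence signal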
[10] = NIH3T3 cell viability loss – ATP luminescence, mouse fibroblasts, counter-screen, dose response (AID 2010); type: functional, cell-based; conditions: NIH3T3;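 further: cells exposed to compound for about 90 hours before reading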
[11] = target: T6, RNA-binding protein pos-1 (Caenorhabditis elegans, UniProt G5EF15); assay: disruptors of C. elegans POS-1 RNA interaction – biochemical, fluorescence polarization, dose response (AID 1964);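 further: purified POS-1 fused to maltose binding protein made in E. coli; potency of compounds blocking POS-1 binding to fluorescent RNA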
T6 sequence (G5EF15 whole entry): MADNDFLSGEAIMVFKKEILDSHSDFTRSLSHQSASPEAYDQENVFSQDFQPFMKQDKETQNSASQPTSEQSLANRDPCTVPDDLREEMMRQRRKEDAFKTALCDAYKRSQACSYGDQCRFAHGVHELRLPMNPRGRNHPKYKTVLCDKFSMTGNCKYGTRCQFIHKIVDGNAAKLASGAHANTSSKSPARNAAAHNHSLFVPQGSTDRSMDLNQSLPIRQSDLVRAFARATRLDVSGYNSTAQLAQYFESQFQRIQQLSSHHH

[12] = target: T7, Zinc finger protein mex-5 (Caenorhabditis elegans, UniProt Q9XUB2); assay: potency of MEX-5 RNA-binding blockers – biochemical, C. elegans, fluorescence polarization, dose response (AID 1960)
T7 sequence (Q9XUB2 whole entry): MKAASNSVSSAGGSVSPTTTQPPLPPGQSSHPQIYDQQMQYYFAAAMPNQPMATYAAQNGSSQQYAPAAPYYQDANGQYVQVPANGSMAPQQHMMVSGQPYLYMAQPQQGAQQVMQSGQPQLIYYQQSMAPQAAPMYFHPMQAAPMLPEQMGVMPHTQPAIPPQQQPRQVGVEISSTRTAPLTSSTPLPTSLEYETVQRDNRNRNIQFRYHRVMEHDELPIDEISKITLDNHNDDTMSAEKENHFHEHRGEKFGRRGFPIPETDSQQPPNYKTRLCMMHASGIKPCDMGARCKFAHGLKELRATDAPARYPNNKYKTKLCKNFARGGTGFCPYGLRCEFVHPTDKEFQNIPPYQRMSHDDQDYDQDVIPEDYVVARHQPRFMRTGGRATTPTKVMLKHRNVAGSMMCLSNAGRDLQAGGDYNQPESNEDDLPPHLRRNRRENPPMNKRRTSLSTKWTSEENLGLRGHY

Chain of FAD-linked sulfhydryl oxidase ALR (P55789 whole entry): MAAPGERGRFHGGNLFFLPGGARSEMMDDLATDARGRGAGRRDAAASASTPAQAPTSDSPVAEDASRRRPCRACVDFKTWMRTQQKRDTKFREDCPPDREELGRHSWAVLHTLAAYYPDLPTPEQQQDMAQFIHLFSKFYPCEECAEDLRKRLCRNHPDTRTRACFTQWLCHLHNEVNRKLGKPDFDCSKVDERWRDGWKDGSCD

Cn1c(S)nnc1CSCc1ccc(Cl)c(Cl)c1
AC50 [1]: 3.93 µM (active)

COc1cc(OC)c2ccc(=O)oc2c1C(CC(=O)N1CCCC1)c1ccc(N(C)C)cc1 (stereo not given)
AC50 [1]: 2.89 µM (active)

O=C(c1ccc([N+](=O)[O-])o1)N1CCN(Cc2ccccc2)CC1
IC50 (cells): 0.55 µM (active)

O=C(NCCc1c[nH]c2ccccc12)C(=O)NCC(c1ccco1)N1CCN(c2ccccc2F)CC1 (stereo not given)
IC50 (H9c2): 12.2 µM (active)

Brc1ccc(-c2ccc(CNCc3ccccn3)o2)cc1
IC50 (cells): 1.25 µM (active)

CCN(C(=O)CN1CCN(c2ccccc2O)CC1)c1c(N)n(Cc2ccccc2)c(=O)[nH]c1=O
AC50 [1]: 16.2 µM (active)

Cc1ccc(C(=O)N/C(=C\c2ccc(-c3cccc([N+](=O)[O-])c3)o2)C(=O)NCCCN(C)C)cc1
IC50 [2]: > 20 µM (inactive)
AC50 [3]: 24.7 µM (active)

CCN1CCCC(OC(=O)c2cc(-c3ccc(C)cc3)nc3ccccc23)C1 (stereo not given)
EC50 [4]: > 120 µM (not active)
EC50 [5]: 31.1 µM (active)
EC50 (H4): > 120 µM (not active)
AC50 [3]: 8.59 µM (active)

C[C@H](NC(=O)c1[nH]cnc1C(=O)NCC(=O)OCc1ccccc1)c1ccccc1
IC50 (H9c2): > 79 µM (inactive)

CCOCc1c(C(=O)NC2=C(C(=O)OCC)C(CC)=Nc3ccccc3N2)oc2ccccc12
IC50 (H9c2): > 79 µM (inactive)

c1ccc2c(c1)nc(Nc1ccc3c(c1)OCO3)c1nnnn12
IC50 (H9c2): 5.99 µM (active)

O=C(Nc1cccc([N+](=O)[O-])c1)c1[nH]ncc1Cl
AC50 [1]: 0.847 µM (active)

COc1ccc(CNc2nc3ccccc3n2C(C)C)c(O)c1
AC50 [1]: 0.146 µM (active)

Cc1cc(C(=O)NNc2ccc(F)cc2)no1
AC50 [6]: 2.05 µM (active)
AC50 [1]: 10.5 µM (active)

Cc1ccc(S(=O)(=O)N(C(=O)c2ccncc2)c2ccc(OC(=O)c3ccncc3)c3ccccc23)c(C)c1
AC50 [7]: 15.4 µM (active)
EC50 (Protein RecA): 10 µM (active)

CCOC(=O)CSc1nnc(CSc2nc(O)c3c4c(sc3n2)CCC4)n1C
IC50 (H9c2): > 79 µM (inactive)

COc1ccc(N2CCN(C(=O)NC3CCCCC3)CC2)cc1
AC50 [1]: 5.03 µM (active)
IC50 [8]: 137 µM (active)

O=C(CSc1nc(O)c2ccccc2n1)N1CCN(S(=O)(=O)c2ccccc2)CC1
IC50 (H9c2): > 79 µM (inactive)

Cc1ccc(-c2nnc(COC(=O)c3cccs3)o2)cc1
IC50 (cells): 17.5 µM (active)

O=C(c1ccc([N+](=O)[O-])cc1[N+](=O)[O-])N1CCc2ccccc21
EC50 [9]: 0.7 µM (active)
EC50 [10]: > 60 µM (not active)
IC50 (cells): 0.21 µM (active)

O=C(Cc1nnc(O)c2ccccc12)OCC(=O)c1ccccc1
IC50 (H9c2): 20.5 µM (active)

Cc1ccc(/N=C/c2cc(Br)cc(Cl)c2O)cc1
EC50 [11]: > 300 µM (not active)
EC50 [12]: > 300 µM (not active)
IC50 (H9c2): 10.4 µM (active)

COc1cc(/C(C)=N/NC(=O)CN2CCN(S(=O)(=O)c3ccc(C)cc3)CC2)ccc1O
AC50 [1]: 3.76 µM (active)

Cn1cccc1CC(=O)N/N=C/c1ccc([N+](=O)[O-])cc1
AC50 [1]: 6.99 µM (active)
